Source: US7872030B2, “Use of 2-[5-(4-fluorophenyl)-3-pyridylmethylaminomethyl]-chromane and its physiologically acceptable salts” (Merck Patent GmbH, priority 2001, dated 2011)

Tests used:
Weaver mutant mouse = Weaver mutant mouse (locomotor activity); details: in vivo
Source text: Typical genetic models in mutant animals are the Campus Syndrome in the Pietrain pig according to A. Richter et al. (Exp. Neurology, 1995; 134: 205-213) or the Weaver mutant mouse according to J. R. Simon and B. Ghetti (Mol. Neurobiol., 1994; 9: 183-189). In the Campus Syndrome model, these mutant pigs show a high-frequency tremor when standing and during locomotion, but not while lying at rest. Assessment of tremor is made by accelerometric recording. In the Weaver mutant mouse, degenerative cerebellar atrophy is fould in association with tremor, gait instability, and toppling over the sides after a few steps.

[1] = test system: patients with Huntington's disease; experiment: Trial in patients with Huntington's disease; assay type: in vivo, human; details: add on, 2.5 to 20 mg b.i.d., vs placebo
Method: A typical trial to establish the effect of the compounds according to the invention on chorea, voluntary motor performance, and functional disability in patients with Huntington's disease encompasses 32 genetically diagnosed patients. […] The dose of blinded medication is titrated over a period of 3 weeks in a range from 2.5 to 20 mg b.i.d. Then the medication is held constant for 1 week. Assessments are performed in the week before and at the last day of the trial. Chorea is scored using the abnormal involuntary movement scale (AIMS, W. Guy, in: ECDEU assessment manual. Rockville Md.: US dept. of health, education and welfare, 1976: 534-537), the unified Huntington's disease rating scale (UHDRS, Huntington study group, 1996, Movement Disord, 11: 136-42), and judgement of video recordings. Voluntary motor performance is assessed using the UHDRS motor scale. Patients and their partners complete a questionnaire regarding functional disability.

dopamine D3 receptor = dopamine D3 receptor (Homo sapiens, UniProt P35462)
dopamine D3 receptor, sequence (P35462 whole entry, species assumed): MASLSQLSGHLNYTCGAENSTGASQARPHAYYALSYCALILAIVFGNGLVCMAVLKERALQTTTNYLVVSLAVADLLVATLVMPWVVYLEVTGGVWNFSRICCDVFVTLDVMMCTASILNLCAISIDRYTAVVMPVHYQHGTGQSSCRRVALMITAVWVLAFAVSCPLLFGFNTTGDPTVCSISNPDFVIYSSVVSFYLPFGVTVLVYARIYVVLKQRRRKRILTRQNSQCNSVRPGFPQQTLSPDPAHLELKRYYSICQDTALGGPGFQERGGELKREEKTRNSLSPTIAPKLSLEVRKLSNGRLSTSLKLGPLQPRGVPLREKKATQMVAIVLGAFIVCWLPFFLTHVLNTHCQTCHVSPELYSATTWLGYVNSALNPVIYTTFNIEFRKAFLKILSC

rats = experiment: Induction of catalepsy in rats (extrapyramidal motor side effects); assay type: in vivo, rat; details: doses up to 500fold higher compared to the doses effective in the animal models
Method: (§1) Extrapyramidal motor side effects in e.g. rodents are measured by the ability of a drug to induce catalepsy. Catalepsy is defined as a state where an animal continues to remain in an unnormal (nonphysiological ‘uncomfortable’) posture for a long time (e.g.: M. E. Stanley and S. D. Glick, Neuropharmacology, 1996; 15: 393-394; C. J. E. Niemegeers and P. Janssen, Life Sci., 1979, […]). For example, if a hindpaw of a rat is placed on an elevated level, e.g. a platform elevated 3 cm above ground level, a normal rat immediately withdraws the hindpaw from the platform to the ground level. A cataleptic rat remains in this unnatural posture even for minutes.

5-HT1A receptor = molecular target: T1, 5-HT1A receptor (Homo sapiens, UniProt P08908); details: compared with buspirone (IC50 […] nmol/l)
T1 sequence (P08908 1-422): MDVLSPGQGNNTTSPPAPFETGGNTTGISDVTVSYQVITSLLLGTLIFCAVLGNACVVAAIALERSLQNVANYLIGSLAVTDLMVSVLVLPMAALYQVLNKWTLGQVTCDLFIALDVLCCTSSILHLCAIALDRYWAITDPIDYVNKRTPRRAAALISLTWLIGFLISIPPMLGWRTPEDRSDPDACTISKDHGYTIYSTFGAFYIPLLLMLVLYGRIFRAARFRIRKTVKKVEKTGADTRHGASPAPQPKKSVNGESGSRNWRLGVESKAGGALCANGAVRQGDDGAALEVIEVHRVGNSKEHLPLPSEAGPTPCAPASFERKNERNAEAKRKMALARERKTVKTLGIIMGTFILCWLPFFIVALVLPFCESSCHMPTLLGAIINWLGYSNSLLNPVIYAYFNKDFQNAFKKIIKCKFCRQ

[2] = test system: neuroleptics sensitized monkey; experiment: Neuroleptics sensitized monkey; assay type: in vivo; details: after haloperidol challenge
Source text: Another typical animal model is the neuroleptics sensitized monkey according to D. E. Casey, Psychopharmacology, 1996; 124: 134-140. Monkeys treated repeatedly with conventional neuroleptics are highly sensitive to a subsequent challenge dose of neuroleptic drugs. When challenged, the monkeys immediately show extrapyramidal motor side effects such as dystonia, dyskinesias, akathisia, and bradykinesia which are rated by a scoring system. The conventional neuroleptic drug haloperidol is given as a challenge.

[3] = test system: rats with nigrostriatal degeneration; experiment: Striatonigral degeneration in the rat, turning behavior; assay type: in vivo; details: 6-hydroxydopamine plus quinolinic acid lesioned rats
Source text: Another more recent animal model is the striatonigral degeneration approach in the rat according to […] et al., J. Neural Transm. Suppl., 1999; 55: 103-113. Rats receive an unilateral injection of 6-hydroxydopamine into the left medial forebrain bundle followed by an injection of quinolinic acid into the ipsilateral striatum inducing nigrostriatal degeneration. The degeneration results in turning behavior to a challenge with dopaminomimetics such as apomorphine or amphetamine. Turning behavior is measured by an automated recorder.

[4] = test system: catalepsy induced by haloperidol; experiment: Catalepsy induced by conventional antidopaminergic drugs such as haloperidol; assay type: in vivo, rat; details: same dose-range as effective in the animal models
Method: as §1

[5] = test system: rats after cardiac arrest; experiment: Posthypoxic myoclonus in rats; details: rat, in vivo
Method: A typical animal model for myoclonus is myoclonus induced by an acute hypoxic episode according to D. D. Truong et al., Mov. Dsiord., 1994; 9: 201-206). In this model of posthypoxic myoclonus, rats undergo a cardiac arrest for 8 minutes and are resuscitated thereafter. Myoclonic jerks occur spontaneously but can be provoked by auditory stimulation, too, worsening over the days following cardiac arrest.

[6] = test system: Parkinsonian cynomolgus monkey; experiment: Adverse effects of chronic l-dopa therapy in MPTP Parkinsonian cynomolgus monkey; assay type: in vivo; details: MPTP monkeys chronically treated with l-dopa
Method: Treatment of adverse effects of conventional anti-Parkinsonian drugs as defined above are determined in a modification of the animal model of the Parkinsonian cynomolgus monkey according to P. J. Blanchet et al., Exp. Neurology 1998; 153: 214-222. Monkeys render parkinsonian by repeated injections of 1-methyl-4-phenyl-1,2,3,6-tetrahydropyridine (MPTP). The Parkinsonian monkeys are chronically treated with the standard l-dopa therapy according to P. J. Blanchet et al., Mov. Disord., 1998; 13: 798-802. Longterm treatment with l-dopa induces extrapyramidal motor side effects and psychotic states which are both qualitatively and quantitatively, assessed by the Abnormal Involuntary Movement Scale (P. J. Blanchet et al., Mov. Disord. 1998; 13: 798-802) for different body parts (face, neck, trunk, each limb) and by rating for psychotic states by observing the monkey's attention, reactivity and mobility.

[7] = test system: patients with cervical dystonia (spasmodic torticollis); experiment: Double-blind, placebo-controlled study in cervical dystonia (TWSTRS); assay type: in vivo, human; details: 2.5 mg to 20 mg b.i.d.

Row | Compound | locomotor activity (Weaver mutant mouse) | voluntary and involuntary motor performance (AIMS, UHDRS, video) [1] | affinity to the dopamine D3 receptor (dopamine D3 receptor) | induction of catalepsy (rats) | agonist potency at the 5-HT1A receptor in contrast to buspirone (5-HT1A receptor) | extrapyramidal motor side effects (dystonia, dyskinesias, akathisia, bradykinesia; score) [2] | turning behavior induced by apomorphine or amphetamine [3] | prevention of catalepsy induced by conventional antidopaminergic drugs [4] | reversal of already existing catalepsy induced by conventional antidopaminergic drugs such as haloperidol [4] | number of spontaneous and auditory-evoked myoclonic jerks [5] | overall choreiform dyskinesias and dystonic dyskinesias (Abnormal Involuntary Movement Scale) [6] | psychotic states (attention, reactivity, mobility rating) [6] | TWSTRS scores [7]
1 | Fc1ccc(-c2cncc(CNCC3CCc4ccccc4O3)c2)cc1 (racemic) [(R/S)-(−/+)-2-[5-(4-fluorophenyl)-3-pyridylmethylaminomethyl]-chromane] | enhance locomotor activity | significant improvement | high affinity | do not induce any catalepsy | more potent agonists | dose-dependently reduce the extrapyramidal motor side effects | dose-dependently antagonized | able to prevent catalepsy | reverses already existing catalepsy | dose-dependently reduce the number of spontaneous and auditory-evoked myoclonic jerks | reduced | reduced | significant improvement
2 | Fc1ccc(-c2cncc(CNC[C@@H]3CCc4ccccc4O3)c2)cc1 [(S)-(+)-2-[5-(4-fluorophenyl)-3-pyridylmethylaminomethyl]-chromane] | enhance locomotor activity | significant improvement | high affinity | do not induce any catalepsy | more potent agonists | dose-dependently reduce the extrapyramidal motor side effects | dose-dependently antagonized | able to prevent catalepsy | reverses already existing catalepsy | dose-dependently reduce the number of spontaneous and auditory-evoked myoclonic jerks | reduced | reduced | significant improvement
